Tests used:
[1] = Pharmacokinetics in beagle dogs after intravenous administration; format: in vivo; conditions: beagle dogs; for λ: i.v.; for Vd / half-life / AUC0-t / Cmax / clearance: both sexes, dog, plasma, iv; for Vd / half-life: beagle
Description: Concentrations of ET-26-HCl and ET-26-acid in biological samples were determined by liquid chromatography–tandem mass spectrometry (LC–MS/MS) after deproteinization with methanol. The bioanalytical method for simultaneous quantification of ET-26-HCl and ET-26-acid in the different matrix was fully validated according to FDA guidelines (electronic supplementary material, figure S1 and tables S1 and S2) in our previous study. Briefly, a 100 µl sample (plasma, tissue homogenate, bile, urine and faeces suspension) were spiked with 20 µl of IS solution and vortexed for 30 s. The mixture was then processed for protein precipitation with 300 µl methanol, followed by centrifugation at 12 000 r.p.m. for 5 min. Supernatant was collected and analysed by LC–MS/MS system.
The LC–MS/MS was performed as described previously. Briefly, ET-26-HCl, ET-26-acid and GBP were separated using a CAPCELL PAK C18 column (50 × 2.00 mm, 5.00 µm) as well as a Security Guard Cartridge (C18, 4 mm × 3.00 mm i.d., Phenomenex). The mobile phase consisting of 0.3% formic acid water (A), and methanol (B) was pumped at a flow rate of 0.6 ml min^−1. The gradient elution was achieved according to the following protocol: 0 min to about 0.50 min, A/B (41/9, v/v); 0.51 min to about 1.5 min, A/B (1/9, v/v); and 1.51 min to about 2.00 min, A/B ([…], v/v). Mass spectrometry was conducted on an API 3000 mass spectrometer (Sciex, Framingham, MA, USA) equipped with an electrospray ionization (ESI) source operating in positive mode. The MS/MS system was in the multiple reaction monitoring (MRM) mode, using the m/z transitions of 275.6/170.9 for ET-26-HCl, 217.7/113.1 for ET-26-acid and 172.5/154.3 for GBP (IS), respectively. The API 3000 mass parameters were set according to the following protocol: curtain gas, 6 psi; collision gas, 8 psi; nebulizer, 4 psi; ion spray voltage, 3000 V and ion source temperature, 450°C. The autosampler was conditioned at 4°C, and the injection volume was 5 µl. The linear ranges of this analytical method for ET-26-HCl and for ET-26-acid from all biological samples are shown in electronic supplementary material, table S3.
Beagle dogs, weighing 9–11 kg, were purchased from Sichuan Industrial of Antibiotics, China National Pharmaceutical Group Corporation (Chengdu, China). A 3 × 3 crossover experimental design with 24 beagles (equal number of male and female dogs) randomly divided into six groups was conducted. Beagle dogs in the six groups received three doses of ET-26-HCl: 1.045 mg kg^−1, 2.090 mg kg^−1 and 4.180 mg kg^−1 as low (L), medium (M) and high (H) dose. Blood samples (2 ml) were collected from the elbow vein in 4 ml heparinized tubes before dosing, and at 1, 3, 5, 10, 20, 30, 120 and 180 min post-dosing. All blood samples were centrifuged at 8000 r.p.m. for 10 min and plasma collected and stored at −80°C until analysis.
All calculations were performed on Microsoft Excel 2016 (Microsoft Co., USA). The Drug and Statistics 3.2.7 (DAS 3.2.7) software package (Mathematical Pharmacology Professional Committee of China, China) was used to acquire the main pharmacokinetic parameters of ET-26-HCl. All data were shown as mean ± standard deviation (s.d.). Statistical significances were calculated by one-way analysis of variance (ANOVA).

[2] = Identification of major metabolites in liver microsomes (UPLC-Q-TOF-MS); format: in vitro ADME, mouse, rat, beagle dog, monkey and human; conditions: 10 µM ET-26-HCl, 1 mg ml^−1 liver microsomes, NADPH, 1 h
Description: The major metabolites of ET-26-HCl in liver microsomes from mouse, rat, beagle dog, monkey and human were determined by the UPLC-Q-TOF-MS system.
Reaction mixture containing 10 µM ET-26-HCl, […] MgCl2 and 1 mg ml^−1 liver microsomes in Tris-HCl phosphate buffer (pH 7.4) was pre-incubated for 6 min at 37°C, followed by the addition of NADPH. After incubation for 1 h, methanol was added to stop the reaction. Samples were centrifuged at 11 000 r.p.m. for 5 min; supernatants were collected and air dried at 40°C. Residues were dissolved in 100 µl acetonitrile/water (1:1, v/v) and analysed by the UPLC-Q-TOF-MS.
The UPLC-Q-OF-MS system was equipped with a Waters Synapt G2-Si quadrupole time-of-flight mass spectrometer (Q-TOF-MS), an ESI source and an ACQUITY UPLC H-CLASS liquid chromatography system. The chromatographic separations were achieved on an ACQUITY UPLC BEH C18 column (2.1 × 100 mm, i.d. 1.7 µm, Waters, USA) kept at 45°C and a flow rate of 0.4 ml min^−1. The mobile phase consisted of 5 mM ammonium acetate with 0.1% formic acid (A) and acetonitrile with 0.1% formic acid (B). The optimized gradient elution programme followed was 0 min to 2.1 min, A/B (19/1, v/v); 2.1 min to 7.3 min, A/B (1/4, v/v); 7.3 min to 8.0 min, A/B (1/9, v/v); and 8.0 min to 10 min, A/B (19/1, v/v). The injection volume was 5 µl. The mass experiment was operated in positive ion modes under the following parameters: turbo spray temperature, 120°C; ion spray voltage, 3.0 kV. Nitrogen was used as the nebulizer and the auxiliary gas; meanwhile, the nebulizer gas was set to 650 l h^−1 and kept at 350°C. The collision energy was set at 5–10 V and the collision energy spread was 4–6 V. TOF-MS was scanned with the mass range of m/z 50–600 with 200 ms accumulation time. A 400 ng ml^−1 leu-enkephalin (m/z 556.2771) was selected as an external standard for mass–charge ratio correction at a flow rate of 5 µl min^−1.

COCCOC(=O)c1cncn1[C@H](C)c1ccccc1.Cl [ET-26-HCl, (R)-2-methoxyethyl1-(1-phenylethyl)-1H-imidazole-5-carboxylate hydrochloride]
λ ([1]; 1.045 mg kg^−1): 0.78 ± 0.06 1 h^−1 | λ ([1]; 2.09 mg kg^−1): 0.54 ± 0.06 1 h^−1 | λ ([1]; 4.18 mg kg^−1): 0.36 ± 0.06 1 h^−1 | Vd ([1]; 1.045 mg/kg, 1.045 mg kg^−1): 2.54 ± 0.29 L/kg | half-life ([1]; 1.045 mg/kg, 1.045 mg kg^−1): 0.92 ± 0.08 h | Vd ([1]; 2.09 mg/kg, 2.09 mg kg^−1): ~4 L/kg | half-life ([1]; 2.09 mg/kg, 2.09 mg kg^−1): ~1 h | Vd ([1]; 4.18 mg/kg, 4.18 mg kg^−1): 4.63 ± 0.67 L/kg | half-life ([1]; 4.18 mg/kg, 4.18 mg kg^−1): 2.17 ± 0.5 h | AUC0-t ([1]; 1.045 mg kg^−1): 30100 ng·h/mL | Cmax ([1]; 1.045 mg kg^−1): 1480 ± 140 ng/mL | clearance ([1]; 1.045 mg kg^−1): 32 mL/min/kg | AUC0-t ([1]; 2.09 mg kg^−1): 62700 ng·h/mL | Cmax ([1]; 2.09 mg kg^−1): 2850 ± 220 ng/mL | clearance ([1]; 2.09 mg kg^−1): 30 mL/min/kg | AUC0-t ([1]; 4.18 mg kg^−1): 130000 ng·h/mL | Cmax ([1]; 4.18 mg kg^−1): 6230 ± 240 ng/mL | clearance ([1]; 4.18 mg kg^−1): 25 mL/min/kg | source (liver microsomes) in which detected [2]: human and dog | source (liver microsomes) in which detected ([2]; listed as M0): human, dog
